Results: ChEMBL document CHEMBL4819076, “An affinity prediction approach for the ligand of E3 ligase Cbl-b and an insight into substrate binding pattern” (Bioorg Med Chem, 2021)
Where a SMILES comes first, the peptide text is derived from it. [ ]: non-standard residue; d: D form. pY = N[C@@H](Cc1ccc(OP(=O)(O)O)cc1)C(=O)O

Tests used:
[1] = biological target: T1, E3 ubiquitin-protein ligase CBL-B (Homo sapiens, UniProt Q13191); test: Binding affinity to recombinant His-tagged Cbl-b (unknown origin) (39 to 368 residues) expressed in Escherichia coli BL21 (DE3) using FITC-DGpYPEPA-NH2 as substrate incubated for 30 mins by fluorescence polarization assay
[2] = biological target: T1, E3 ubiquitin-protein ligase CBL-B; test: Binding affinity to recombinant His-tagged Cbl-b (unknown origin) (39 to 368 residues) expressed in Escherichia coli BL21 (DE3) assessed as dissociation constant by bio-layer interferometry assay

T1 sequence (Q13191 whole entry, the tested form may be a part): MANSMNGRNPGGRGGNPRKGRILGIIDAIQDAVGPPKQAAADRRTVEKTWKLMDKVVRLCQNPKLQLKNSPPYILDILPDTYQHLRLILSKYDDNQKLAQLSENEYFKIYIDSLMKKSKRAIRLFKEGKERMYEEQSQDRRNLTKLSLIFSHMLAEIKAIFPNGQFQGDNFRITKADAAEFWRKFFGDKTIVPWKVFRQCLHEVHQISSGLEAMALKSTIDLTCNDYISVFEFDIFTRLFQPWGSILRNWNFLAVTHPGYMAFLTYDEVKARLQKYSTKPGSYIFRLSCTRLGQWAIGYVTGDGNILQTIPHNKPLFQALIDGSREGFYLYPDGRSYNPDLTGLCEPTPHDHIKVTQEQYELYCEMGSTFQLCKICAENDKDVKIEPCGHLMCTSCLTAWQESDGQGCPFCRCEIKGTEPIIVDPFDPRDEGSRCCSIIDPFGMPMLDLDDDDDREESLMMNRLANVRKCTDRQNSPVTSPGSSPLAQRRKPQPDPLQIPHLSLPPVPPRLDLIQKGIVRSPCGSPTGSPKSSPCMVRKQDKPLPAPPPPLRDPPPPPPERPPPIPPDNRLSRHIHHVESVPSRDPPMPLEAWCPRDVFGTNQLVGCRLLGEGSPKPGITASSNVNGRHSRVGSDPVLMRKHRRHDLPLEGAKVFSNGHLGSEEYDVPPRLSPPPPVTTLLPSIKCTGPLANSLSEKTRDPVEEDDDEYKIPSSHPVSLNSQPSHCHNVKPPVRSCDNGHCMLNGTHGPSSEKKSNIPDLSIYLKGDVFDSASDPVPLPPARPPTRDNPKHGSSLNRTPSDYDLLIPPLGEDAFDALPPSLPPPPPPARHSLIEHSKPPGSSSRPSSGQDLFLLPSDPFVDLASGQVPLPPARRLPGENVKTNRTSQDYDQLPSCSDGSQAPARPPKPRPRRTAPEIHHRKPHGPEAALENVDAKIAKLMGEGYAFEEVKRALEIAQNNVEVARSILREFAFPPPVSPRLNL

Compound	IC50 [1] [µM]	Kd [2] [µM]
CC(=O)N[C@@H](CC(=O)O)C(=O)NCC(=O)N[C@@H](Cc1ccc(OP(=O)(O)O)cc1)C(=O)N[C@H](C(=O)N1CCC[C@H]1C(=O)N[C@@H](CCC(=O)O)C(=O)N1CCC[C@H]1C(=O)N[C@@H](C)C(N)=O)[C@@H](C)O (Ac-DG[pY]TPEPA-NH2)	10.6	24.4
CC(=O)N[C@@H](Cc1ccc(OP(=O)(O)O)cc1)C(=O)N[C@H](C(=O)N[C@@H](CC(C)C)C(=O)N[C@@H](CCC(=O)O)C(=O)N1CCC[C@H]1C(N)=O)[C@@H](C)O (Ac-[pY]TLEP-NH2)	–	29.8
CC(=O)N[C@@H](Cc1ccc(OP(=O)(O)O)cc1)C(=O)N[C@H](C(=O)N1CCC[C@H]1C(=O)N[C@@H](CC(=O)O)C(=O)N1CCC[C@H]1C(N)=O)[C@@H](C)O (Ac-[pY]TPDP-NH2)	–	22.9
CC(=O)N[C@@H](Cc1ccc(OP(=O)(O)O)cc1)C(=O)N[C@H](C(=O)N1CCC[C@H]1C(=O)N[C@@H](CCC(=O)O)C(=O)N1CCC[C@H]1C(N)=O)[C@@H](C)O	7.84	5.55
CC(=O)N[C@@H](Cc1ccc(OP(=O)(O)O)cc1)C(=O)N[C@H](C(=O)N[C@@H](C)C(=O)N[C@@H](CCC(=O)O)C(=O)N1CCC[C@H]1C(N)=O)[C@@H](C)O (Ac-[pY]TAEP-NH2)	27.3	24.4
CC(=O)N[C@@H](CC(C)C)C(=O)N[C@@H](CCC(N)=O)C(=O)N[C@@H](CCCNC(=N)N)C(=O)N[C@@H](Cc1ccc(OP(=O)(O)O)cc1)C(=O)N[C@@H](CO)C(=O)N[C@@H](CO)C(=O)N[C@@H](CC(=O)O)C(=O)N1CCC[C@H]1C(=O)N[C@H](C(=O)NCC(N)=O)[C@@H](C)O (Ac-LQR[pY]SSDPTG-NH2)	–	8.28
CC[C@H](C)[C@H](NC(=O)[C@@H](NC(=O)[C@H](Cc1ccc(OP(=O)(O)O)cc1)NC(C)=O)[C@@H](C)O)C(=O)N[C@@H](CCC(=O)O)C(=O)N1CCC[C@H]1C(N)=O (Ac-[pY]TIEP-NH2)	–	35.5
C[C@@H](O)[C@H](NC(=O)[C@H](Cc1ccc(OP(=O)(O)O)cc1)NC(=O)CN)C(=O)N1CCC[C@H]1C(=O)N[C@@H](CCC(=O)O)C(=O)O (H-G[pY]TPE-OH)	> 1000	–
CC(=O)NCC(=O)N[C@@H](Cc1ccc(OP(=O)(O)O)cc1)C(=O)N[C@H](C(=O)N1CCC[C@H]1C(=O)N[C@@H](CCC(=O)O)C(=O)N1CCC[C@H]1C(N)=O)[C@@H](C)O (Ac-G[pY]TPEP-NH2)	11.3	22.4
CC(=O)N[C@@H](Cc1ccc(OP(=O)(O)O)cc1)C(=O)N[C@H](C(=O)N1CCC[C@H]1C(=O)N[C@@H](CCC(=O)O)C(N)=O)[C@@H](C)O (Ac-[pY]TPE-NH2)	398	98.3
CC(=O)N[C@@H](Cc1ccc(OP(=O)(O)O)cc1)C(=O)N[C@H](C(=O)N1CCC[C@H]1C(=O)N[C@@H](CCC(=O)O)C(=O)N[C@@H](Cc1ccccc1)C(N)=O)[C@@H](C)O (Ac-[pY]TPEF-NH2)	–	33.5
CC(=O)N[C@@H](Cc1ccc(OP(=O)(O)O)cc1)C(=O)N[C@H](C(=O)N1CCC[C@H]1C(=O)N[C@@H](C)C(=O)N1CCC[C@H]1C(N)=O)[C@@H](C)O (Ac-[pY]TPAP-NH2)	46.3	18.5
CC(=O)N[C@@H](Cc1ccc(OP(=O)(O)O)cc1)C(=O)N[C@@H](C)C(=O)N1CCC[C@H]1C(=O)N[C@@H](CCC(=O)O)C(=O)N1CCC[C@H]1C(N)=O (Ac-[pY]APEP-NH2)	104	57.1
CC(=O)N[C@@H](Cc1ccc(OP(=O)(O)O)cc1)C(=O)N[C@H](C(=O)N1CCC[C@H]1C(=O)N[C@@H](CCC(N)=O)C(=O)N1CCC[C@H]1C(N)=O)[C@@H](C)O (Ac-[pY]TPQP-NH2)	–	43.4
Ac-ETPEP-NH2	> 1000	–
CC(=O)N[C@@H](CCCNC(=N)N)C(=O)N[C@@H](Cc1ccc(OP(=O)(O)O)cc1)C(=O)N[C@H](C(=O)N1CCC[C@H]1C(=O)N[C@@H](CCC(=O)O)C(=O)N1CCC[C@H]1C(N)=O)[C@@H](C)O (Ac-R[pY]TPEP-NH2)	–	0.763
